Results as given in patent publication US20220033355A1, “CRYSTAL FORM A OF 2-(2, 5-DIOXOPYRROLIDIN-1YL) ETHYL METHYL FUMARATE, PREPARATION METHOD THEREFOR AND USE THEREOF” (SHENZHEN RENTAI PHARMATECH LTD., priority 2019, published 2022).
Structures can show the parent of a compound that is named as a salt.

Key:
Format in all cases: physicochemical
[1] = High-temperature stability of the crystal form (XRPD comparison); conditions: 60° C.
Procedure: (§1) Method: Cu target Ka, voltage: 40 KV, current: 40 mA, test angle: 3-45°, scanning step: 0.02, exposure time: 0.2S, slit width of light pipe: 2 mm, Dtex detector.
(2) High-temperature stability: the test sample is placed at a temperature of 60° C. for 5 days and 10 days, respectively, to test the stability of the crystal form.
(2) High-temperature stability: by referring to the same method of high-temperature stability test for crystal A, the test sample is placed at a temperature of 60° C. for 5 days to test the stability of the crystal form, which is compared with XRPD pattern of the crystal form I on day 0.

[2] = High-humidity stability 1 of the crystal form (XRPD comparison); conditions: 92.5% RH, 25° C.
Procedure: as §1
(3) High-humidity stability 1: the test sample is placed in an environment having a humidity of 92.5% RH and a temperature of 25° C. for 5 days and 10 days, respectively, to test the stability of the crystal form.
(§2) (3) High-humidity stability 1: by referring to the same method of high-humidity stability test 1 for crystal A, the test sample is placed in an environment having a humidity of 92.5% RH and a temperature of 25° C. for 5 days to test the stability of the crystal form, which are compared with XRPD pattern of the crystal form I on day 0.

[3] = High-humidity stability 2 of the crystal form (XRPD comparison); conditions: 75% RH, 40° C.
Procedure: as §1
(4) High-humidity stability 2: the test sample is placed in an environment having a humidity of 75% RH and a temperature of 40° C. for 5 days and 10 days, respectively, to test the stability of the crystal form.
as §2, with “(4)” for “(3)”, “2:” for “1:”, “2” for “1”, “75%” for “92.5%”, “40°” for “25°”

[4] = Light stability of the crystal form (XRPD comparison); conditions: 25° C., 4500 Lux
Procedure: as §1
(1) Light stability: the test sample is placed in an environment having a temperature of 25° C. and a light condition of 4500 Lux for 5 days and 10 days, respectively, to test the stability of the crystal form.
(1) Light stability: by referring to the same method of light stability test for crystal A, the test sample is placed in an environment having a temperature of 25° C. and a light condition of 4500 Lux for 5 days to test the stability of the crystal form, which is compared with XRPD pattern of the crystal form I on day 0.

[5] = Dynamic vapor sorption (DVS) hygroscopicity study; conditions: 25° C., RH stepped up from RH 0 to RH 90% at RH 10% per step, 10 min per step, when RH 90% is completed
Procedure: Model: DVS intrinsic (SMS, British); Method: 25° C., relative humidity is stepped up at a rate of 10%, the judgment standard is change in moisture content is <0.02% over a 10-minute period. Dynamic vapor sorption (DVS) experiment are performed for the crystal form I of Example 1 and the crystal form A prepared in Example 2 to obtain DVS curves under the following conditions: the temperature is 25° C., the relative humidity (RH) is stepped up from RH 0 to RH 90% at a rate of RH 10% per step, with 10 min for each step to reach equilibrium.

[6] = 5 days, XRPD compared with day 0

Row | high-temperature stability of the crystal form ([1]; 5 days and 10 days, XRPD) | high-humidity stability 1 of the crystal form ([2]; 5 days and 10 days, XRPD) | high-humidity stability 2 of the crystal form ([3]; 5 days and 10 days, XRPD) | light stability of the crystal form ([4]; 5 days and 10 days, XRPD) | weight increase due to moisture absorption [5] [%] | Compound | high-temperature stability of the crystal form [1, 6] | high-humidity stability 1 of the crystal form [2, 6] | high-humidity stability 2 of the crystal form [3, 6] | light stability of the crystal form [4, 6]
1 | good high-temperature stability | good high-humidity stability | good high-humidity stability | good light stability |  | COC(=O)/C=C/C(=O)OCCN1C(=O)CCC1=O [crystal form A, 2-(2,5-dioxopyrrolidin-1yl)ethyl methyl fumarate] |  |  |  | 
2 |  |  |  |  | 0.642 | COC(=O)/C=C/C(=O)OCCN1C(=O)CCC1=O [crystal form I, 2-(2,5-dioxopyrrolidin-1yl)ethyl methyl fumarate] | unstable under high temperatures and easily transforms into crystal form A | unstable under high humidity and easily transforms into crystal form A | unstable under high humidity and easily transforms into crystal form A | unstable under lights and easily transforms into crystal form A
